Experimental data taken from PMC6270263, “Factors Influencing the Antifolate Activity of Synthetic Tea-Derived Catechins” (Molecules, 2013).
Where two headings read alike, the source gives them in different places.

Key:
[1] = biological target: T1, bovine serum albumin (BSA) (Bos taurus, UniProt P02769); experiment: Competitive site-marker (warfarin, ibuprofen) binding to BSA; conditions: for Kd: BSA, 25 °C, read-out: Binding constant (KA) (converted)
T1 construct: purchased Sigma-Aldrich
Protocol: Next, the site selective binding of both EGCG and TMCG to BSA was analyzed. The capability of serum albumins to bind to aromatic and heterocyclic compounds is largely dependent on the existence of two major binding regions, namely site-I and site-II [25]. Warfarin and ibuprofen are fluorescence probes whose primary binding sites to BSA are site-I and site-II, respectively.
To identify the binding sites of EGCG and TMCG in BSA, the displacements of warfarin and ibuprofen (known to bind at site I and site II, respectively) were followed fluorometrically. Equimolar solutions of BSA and warfarin (5 × 10^−6 M each) were mixed for 1 h and titrated with EGCG and TMCG in separate experiments. Similar solutions containing equimolar ibuprofen and BSA were prepared and separately titrated with EGCG and TMCG to identify the binding sites of EGCG and TMCG with BSA. Titration was followed fluorometrically using an excitation wavelength of 280 nm.

[2] = test system: SK-MEL-28 melanoma cells; experiment: Apoptosis assay (cell death detection ELISA) with or without site markers; assay type: cell-based, human; conditions: SK-MEL-28, warfarin 10 µM
From the text: Serum is commonly used as a supplement in cell culture media. It supports cell growth and product formation by providing a broad spectrum of macromolecules, attachment factors, nutrients, and hormone and growth factors. The most commonly used animal serum supplement is foetal bovine serum, FBS (alternatively called foetal calf serum—FCS). Because BSA is a major component of FBS, the in vitro activity of catechins on tumour cells might be affected by their interaction with BSA. The effect of albumin binding on the biological activity of polyphenols is unclear. Does the bound ligand have some biological activity or does the polyphenol have to be in the free form to be active? To answer this question and to determine whether BSA-catechin interactions increase or decrease catechin anti-tumour activity, the proapoptotic activity of TMCG on SK-MEL-28 melanoma cells was probed in the presence of warfarin or ibuprofen [Figure 5(b)]. […] Because the binding of catechins to BSA seems to control drug availability, the lower affinity of TMCG and TMECG for serum albumins, with respect to natural tea catechins, might contribute to the high in vivo anti-tumour activity of these methylated synthetic catechins. […]
The human melanoma cell line SK-MEL-28 was obtained from American Type Culture Collection (ATCC, Manassas, VA, USA) and was maintained in Eagles’s Minimum Essential Medium (EMEM) supplemented with 10% (v/v) FBS and antibiotics at 37 °C in a humidified atmosphere containing 7.5% CO2. Cell viability was evaluated using the MTT cell proliferation assay. Cells were evaluated for apoptosis using a cell death detection ELISA (Cell Death Detection ELISAPLUS, Roche Diagnostics, Barcelona, Spain). […] The amount of nucleosomes is photometrically quantified at 405 nm by the peroxidase activity retained in the immunocomplexes. Apoptosis was defined as the specific enrichment of mono- and oligonucleosomes in the cytoplasm and was calculated by dividing the absorbance of treated samples with the absorbance of untreated samples after correcting for the number of cells. […]

[3] = biological target: T2, free recombinant human DHFR (rHDHFR) (Homo sapiens, UniProt P00374); experiment: Binding of polyphenols to free rHDHFR by fluorescence quenching titration
T2 construct: made in house; host or cells: Bombyx mori chrysalides
T2 sequence (P00374 1-187): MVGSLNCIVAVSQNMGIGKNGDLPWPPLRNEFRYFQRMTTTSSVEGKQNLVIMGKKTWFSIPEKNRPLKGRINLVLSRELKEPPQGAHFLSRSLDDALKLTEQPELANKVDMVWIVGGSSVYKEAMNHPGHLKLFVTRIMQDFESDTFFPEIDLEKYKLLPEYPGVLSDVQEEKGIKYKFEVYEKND
Protocol: Natural and synthetic derivatives of tea catechins have shown to be good inhibitors of human DHFR [7, 11, 16, 18]. To determine the ability of natural and synthetic polyphenols to bind DHFR, we performed a structure-activity study by analyzing the binding of these polyphenols to DHFR using fluorescence quenching. Effective binding to free recombinant human DHFR (rHDHFR) was determined by measuring the decrease in enzyme fluorescence that occurs upon the formation of the enzyme-inhibitor complex. […] The dissociation constants of the synthetic compounds were on the same order as those of the natural analogues, indicating the high DHFR binding capacities of these new derivatives.
The dissociation constants for the binding of polyphenols to free recombinant human DHFR (rHDHFR) were determined by fluorescence titration in an automatic-scanning FluoroMax-3 (Jobin Ybon, Horiba, Edison, NJ, USA) spectrofluorometer with 1.0 cm light path cells and a 150 W mercury-xenon light source. The formation of a binary complex between the enzyme (2.5 × 10^−7 M) and the ligand (from 0 to 40 µM) was followed by measuring the quenching of the tryptophan fluorescence of the enzyme upon the addition of microliter volumes of a concentrated stock solution of ligand. Experiments were performed at pH 7.5 in a buffer containing 2-(N-morpholino)ethanesulfonic acid (Mes, 0.025 M), sodium acetate (0.025 M), tris(hydroxymethyl)aminomethane (Tris 0.05 M), and NaCl (0.1 M). The temperature was controlled at 25 °C using a Haake D1G circulating bath with a heater and cooler. Fluorescence emission spectra were recorded when the human DHFR fluorescence was excited at 290 nm, and titrations were performed as described elsewhere.

T1 sequence (P02769 25-607): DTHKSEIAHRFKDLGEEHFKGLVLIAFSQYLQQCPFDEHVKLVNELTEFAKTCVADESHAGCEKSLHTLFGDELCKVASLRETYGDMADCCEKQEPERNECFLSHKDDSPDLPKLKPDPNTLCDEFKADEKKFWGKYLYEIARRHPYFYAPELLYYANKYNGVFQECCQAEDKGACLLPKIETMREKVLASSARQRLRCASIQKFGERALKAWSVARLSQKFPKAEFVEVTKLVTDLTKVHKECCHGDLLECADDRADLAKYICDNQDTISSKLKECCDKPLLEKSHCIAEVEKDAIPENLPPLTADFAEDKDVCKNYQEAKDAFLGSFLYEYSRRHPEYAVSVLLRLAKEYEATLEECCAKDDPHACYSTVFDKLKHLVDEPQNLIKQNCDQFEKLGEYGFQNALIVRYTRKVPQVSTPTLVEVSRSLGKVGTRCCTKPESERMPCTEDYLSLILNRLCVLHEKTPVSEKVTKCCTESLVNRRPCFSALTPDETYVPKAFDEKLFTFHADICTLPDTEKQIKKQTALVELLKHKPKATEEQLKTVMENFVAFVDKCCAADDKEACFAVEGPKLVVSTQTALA

COc1cc(C(=O)O[C@H]2Cc3c(O)cc(O)cc3O[C@@H]2c2ccc(O)c(O)c2)cc(OC)c1OC [TMCG]
Kd ([1]; site marker: Blank): 5.26 µM
Kd ([1]; site marker: Ibuprofen): 9.09 µM
Kd ([1]; site marker: Warfarin): 20 µM
Site selective binding to BSA ([1]; competition with warfarin (site-I) and ibuprofen (site-II)): higher specificity for site-I
Proapoptotic activity of TMCG in the presence of warfarin [2]: significantly increased
Kd ([3]; Table 2, restates Table 1, read-out: KD, order of binding strengths to rHDHFR depending on D-ring substitution): 900 nM
Kd ([3]; pH 7.5, 25 °C, fluorescence titration, read-out: Dissociation constant KD of free rHDHFR): 900 ± 100 nM
